Values after ≈ are worked out from the molar mass of the structure shown. A value given as a limit tells only on which side of the number the result lay.

For orientation: MIC means the smallest concentration in the dilution series that meets the test's criterion for growth inhibition.

What all share (assay): Bacterial growth minimal inhibitory concentration (broth microdilution, CLSI M7-A7)
In general terms: Broth dilution looks for growth in wells or tubes with falling amounts of substance.

One experiment relates to K. pneumoniae A-651. Format: cell-based, Klebsiella pneumoniae. The following applies: Klebsiella pneumoniae, A651; cation-adjusted Mueller-Hinton Broth, microdilution; multiply-resistant (quinolone-resistant) strain; read-out: MIC for K. Pneumoniae A-651. On the procedure:
(§1) Minimal Inhibitory Concentrations (MICs; mg/L) were determined in cation-adjusted Mueller-Hinton Broth by a microdilution method following the description given in “Methods for Dilution Antimicrobial Susceptibility Tests for Bacteria that Grow Aerobically”, Approved standard, 7th ed., Clinical and Laboratory Standards Institute (CLSI) Document M7-A7, Wayne, Pa., USA (2006).
(§2) All Example compounds, except the compound of Example 62, were tested against several Gram-positive and Gram-negative bacteria. […] K. pneumoniae A-651 and Acinetobacter baumannii T6474 are multiply-resistant strains (in particular quinolone-resistant), while E. coli ATCC25922 and P. aeruginosa ATCC27853 are quinolone-sensitive strains.

A further experiment deals with P. aeruginosa ATCC27853. In kind it is cell-based, Pseudomonas aeruginosa. The following applies: Pseudomonas aeruginosa, ATCC27853; cation-adjusted Mueller-Hinton Broth, microdilution; quinolone-sensitive strain; read-out: MIC for P. aeruginosa ATCC27853. On the procedure:
as §1, §2

In another experiment the test system is E. coli ATCC25922. In kind it is cell-based, Escherichia coli. The following applies: Escherichia coli, ATCC25922; cation-adjusted Mueller-Hinton Broth, microdilution; quinolone-sensitive strain; read-out: MIC for E. coli ATCC25922. As for the experimental part:
as §1, §2

Experiment [1] deals with Acinetobacter baumannii T6474. Format: cell-based. The following applies: Acinetobacter baumannii, T6474; cation-adjusted Mueller-Hinton Broth, microdilution; multiply-resistant (quinolone-resistant) strain; read-out: MIC for A. Baumannii T6474. On the procedure:
as §1, §2

On to `C[C@@](CCn1cc2cc(-c3ccc(-n4nccn4)cc3)ccc2n1)(C(=O)NO)S(C)(=O)=O` [Example 12, (R)—N-hydroxy-2-methylsulfonyl-2-methyl-4-[5-(4-[1,2,3]triazol-2-yl-phenyl)-indazol-2-yl]-butanamide], for which the minimum inhibitory concentration (MIC) was 0.125 µg/mL (≈ 0.275 µM) with K. pneumoniae A-651, 2 µg/mL (≈ 4.4 µM) with P. aeruginosa ATCC27853, 0.063 µg/mL (≈ 0.139 µM) in the experiment with E. coli ATCC25922 and 1 µg/mL (≈ 2.2 µM) in experiment [1].
The corresponding values for `C[C@@](CCn1cc2cc(C#CC#CC3(O)CSC3)ccc2n1)(C(=O)NO)S(C)(=O)=O` [Example 13, (R)—N-hydroxy-4-(5-((3-hydroxythietan-3-yl)buta-1,3-diyn-1-yl)-2H-indazol-2-yl)-2-methyl-2-(methylsulfonyl)butanamide] are 0.25 µg/mL (≈ 0.559 µM), 0.5 µg/mL (≈ 1.12 µM), 0.125 µg/mL (≈ 0.279 µM) and 32 µg/mL (≈ 71.5 µM).
For `CC(C)(O)c1ccc(C#Cc2ccc3nn(CC[C@](C)(C(=O)NO)S(C)(=O)=O)cc3c2F)cc1` [Example 14, (R)-4-(4-fluoro-5-((4-(2-hydroxypropan-2-yl)phenyl)ethynyl)-2H-indazol-2-yl)-N-hydroxy-2-methyl-2-(methylsulfonyl)butanamide], the MIC was 0.25 µg/mL (≈ 0.513 µM) in the experiment with K. pneumoniae A-651, 2 µg/mL (≈ 4.1 µM) in the experiment on P. aeruginosa ATCC27853, 0.25 µg/mL (≈ 0.513 µM) in the experiment with E. coli ATCC25922 and 16 µg/mL (≈ 32.8 µM) in experiment [1].
Turning to `C[C@@](CCn1cc2cc(C#CC#CC3(O)CCOCC3)ccc2n1)(C(=O)NO)S(C)(=O)=O` [Example 15, (R)—N-hydroxy-4-(5-((4-hydroxytetrahydro-2H-pyran-4-yl)buta-1,3-diyn-1-yl)-2H-indazol-2-yl)-2-methyl-2-(methylsulfonyl)butanamide], the MIC in the experiment on K. pneumoniae A-651 is 2 µg/mL (≈ 4.35 µM); with P. aeruginosa ATCC27853, 2 µg/mL (≈ 4.35 µM); in the experiment with E. coli ATCC25922 it was 2 µg/mL (≈ 4.35 µM); in experiment [1], greater than 32 µg/mL.
`C[C@@](CCn1cc2cc(C#Cc3ccc(C4(CO)CC4)cc3)ccc2n1)(C(=O)NO)S(C)(=O)=O` [Example 16, (R)—N-hydroxy-4-(5-((4-(1-(hydroxymethyl)cyclopropyl)phenyl)ethynyl)-2H-indazol-2-yl)-2-methyl-2-(methylsulfonyl)butanamide]: the minimum inhibitory concentration (MIC) with K. pneumoniae A-651 worked out at 0.125 µg/mL (≈ 0.26 µM); in the experiment on P. aeruginosa ATCC27853 it was 1 µg/mL (≈ 2.08 µM); in the experiment with E. coli ATCC25922 it was 0.125 µg/mL (≈ 0.26 µM); in experiment [1], 0.5 µg/mL (≈ 1.04 µM).
Regarding `C[C@@](CCn1cc2cc(/C=C/c3ccccc3)ccc2n1)(C(=O)NO)S(C)(=O)=O` [Example 17, (R)—N-hydroxy-2-methylsulfonyl-2-methyl-4-[5-((E)-styryl)-indazol-2-yl]-butanamide], the MIC with K. pneumoniae A-651 is 0.063 µg/mL (≈ 0.152 µM); in the experiment with P. aeruginosa ATCC27853, 16 µg/mL (≈ 38.7 µM); with E. coli ATCC25922 it was 0.063 µg/mL (≈ 0.152 µM); in experiment [1], 1 µg/mL (≈ 2.42 µM).
`C[C@@](CCn1cc2cc(C#Cc3ccc(N)cc3)ccc2n1)(C(=O)NO)S(C)(=O)=O` [Example 19, (R)-4-[5-(4-amino-phenylethynyl)-indazol-2-yl]-N-hydroxy-2-methylsulfonyl-2-methyl-butanamide]: the MIC with K. pneumoniae A-651 is 0.125 µg/mL (≈ 0.293 µM); in the experiment with P. aeruginosa ATCC27853, 2 µg/mL (≈ 4.69 µM); with E. coli ATCC25922 it was 0.063 µg/mL (≈ 0.148 µM); in experiment [1] it was 0.5 µg/mL (≈ 1.17 µM).
The corresponding values for `C[C@@](CCn1cc2cc(C#Cc3ccc(C4(O)COC4)cc3)ccc2n1)(C(=O)NO)S(C)(=O)=O` [Example 20, (R)—N-hydroxy-4-{5-[4-(3-hydroxy-oxetan-3-yl)-phenylethynyl]-indazol-2-yl}-2-methylsulfonyl-2-methyl-butanamide] are 0.125 µg/mL (≈ 0.259 µM), 0.5 µg/mL (≈ 1.03 µM), 0.25 µg/mL (≈ 0.517 µM) and 0.5 µg/mL (≈ 1.03 µM).
The corresponding values for `C[C@@](CCn1cc2cc(C#Cc3ccc(CO)cc3)ccc2n1)(C(=O)NO)S(C)(=O)=O` [Example 21, (R)—N-hydroxy-4-(5-((4-(hydroxymethyl)phenyl)ethynyl)-2H-indazol-2-yl)-2-methyl-2-(methylsulfonyl)butanamide] are 0.25 µg/mL (≈ 0.566 µM), 1 µg/mL (≈ 2.26 µM), 0.125 µg/mL (≈ 0.283 µM) and 0.5 µg/mL (≈ 1.13 µM).
The corresponding values for `C[C@@](CCn1cc2cc(C#Cc3ccc(CO)c(F)c3)ccc2n1)(C(=O)NO)S(C)(=O)=O` [Example 22, (R)-4-[5-(3-fluoro-4-hydroxymethyl-phenylethynyl)-indazol-2-yl]-N-hydroxy-2-methylsulfonyl-2-methyl-butanamide] are 0.5 µg/mL (≈ 1.09 µM), 2 µg/mL (≈ 4.35 µM), 0.125 µg/mL (≈ 0.272 µM) and 1 µg/mL (≈ 2.18 µM).
For `C[C@@](CCn1cc2c(F)c(C#Cc3ccc(CO)cc3)ccc2n1)(C(=O)NO)S(C)(=O)=O.O=C(O)C(F)(F)F` [Example 23, (R)-4-[4-fluoro-5-(4-hydroxymethyl-phenylethynyl)-indazol-2-yl]-N-hydroxy-2-methylsulfonyl-2-methyl-butanamide trifluoro-acetic acid salt], the MIC with K. pneumoniae A-651 is 0.25 µg/mL; in the experiment with P. aeruginosa ATCC27853, 4 µg/mL; in the experiment on E. coli ATCC25922, 0.25 µg/mL; in experiment [1], 1 µg/mL.
With `C[C@@](CCn1cc2cc(C#Cc3ccc(CCO)cc3)ccc2n1)(C(=O)NO)S(C)(=O)=O` [Example 25, (R)—N-hydroxy-4-{5-[4-(2-hydroxy-ethyl)-phenylethynyl]-indazol-2-yl}-2-methylsulfonyl-2-methyl-butanamide], the MIC came to 0.063 µg/mL (≈ 0.138 µM) with K. pneumoniae A-651, 0.5 µg/mL (≈ 1.1 µM) in the experiment on P. aeruginosa ATCC27853, 0.063 µg/mL (≈ 0.138 µM) with E. coli ATCC25922 and 0.5 µg/mL (≈ 1.1 µM) in experiment [1].
On to `C[C@@](CCn1cc2cc(C#Cc3ccc([C@@H](O)CO)cc3)ccc2n1)(C(=O)NO)S(C)(=O)=O` [Example 26, (2R)-4-{5-[4-((R)-1,2-dihydroxy-ethyl)-phenylethynyl]-indazol-2-yl}-N-hydroxy-2-methylsulfonyl-2-methyl-butanamide], for which the MIC is 0.5 µg/mL (≈ 1.06 µM) in the experiment with K. pneumoniae A-651, 1 µg/mL (≈ 2.12 µM) with P. aeruginosa ATCC27853, 0.5 µg/mL (≈ 1.06 µM) with E. coli ATCC25922 and 8 µg/mL (≈ 17 µM) in experiment [1].
For `CC(C)(O)c1ccc(C#Cc2ccc3nn(CC[C@](C)(C(=O)NO)S(C)(=O)=O)cc3c2)cc1` [Example 27, (R)—N-hydroxy-4-(5-((4-(2-hydroxypropan-2-yl)phenyl)ethynyl)-2H-indazol-2-yl)-2-methyl-2-(methylsulfonyl)butanamide], the MIC is 0.125 µg/mL (≈ 0.266 µM) with K. pneumoniae A-651, 0.5 µg/mL (≈ 1.06 µM) in the experiment on P. aeruginosa ATCC27853, 0.063 µg/mL (≈ 0.134 µM) with E. coli ATCC25922 and 0.25 µg/mL (≈ 0.532 µM) in experiment [1].
The corresponding values for `C[C@@](CCn1cc2cc(C#CC#CC3(O)COC3)ccc2n1)(C(=O)NO)S(C)(=O)=O` [Example 28, (R)—N-hydroxy-4-(5-((3-hydroxyoxetan-3-yl)buta-1,3-diyn-1-yl)-2H-indazol-2-yl)-2-methyl-2-(methylsulfonyl)butanamide] are 0.5 µg/mL (≈ 1.16 µM), 1 µg/mL (≈ 2.32 µM), 0.5 µg/mL (≈ 1.16 µM) and greater than 32 µg/mL.
The corresponding values for `C[C@@](CCn1cc2c(F)c(C#Cc3ccc(C4(O)COC4)cc3)ccc2n1)(C(=O)NO)S(C)(=O)=O` [Example 29, (R)-4-{4-fluoro-5-[4-(3-hydroxy-oxetan-3-yl)-phenylethynyl]-indazol-2-yl}-N-hydroxy-2-methylsulfonyl-2-methyl-butanamide] are 0.25 µg/mL (≈ 0.498 µM), 1 µg/mL (≈ 1.99 µM), 0.25 µg/mL (≈ 0.498 µM) and 0.5 µg/mL (≈ 0.997 µM).
Take `CN(C)C1(c2ccc(C#Cc3ccc4nn(CC[C@](C)(C(=O)NO)S(C)(=O)=O)cc4c3)cc2)COC1.Cc1ccc(S(=O)(=O)O)cc1` [Example 30, (R)-4-{5-[4-(3-dimethylamino-oxetan-3-yl)-phenylethynyl]-indazol-2-yl}-N-hydroxy-2-methylsulfonyl-2-methyl-butanamide toluene-4-sulfonic acid salt]: the MIC in the experiment with K. pneumoniae A-651 is 2 µg/mL; in the experiment on P. aeruginosa ATCC27853, 4 µg/mL; in the experiment on E. coli ATCC25922 it was 1 µg/mL; in experiment [1], 2 µg/mL.
Consider `C[C@@](CCn1cc2cc(C#CC#CC3(O)COC3)c(F)cc2n1)(C(=O)NO)S(C)(=O)=O` [Example 31, (R)-4-{6-fluoro-5-[4-(3-hydroxy-oxetan-3-yl)-buta-1,3-diynyl]-indazol-2-yl}-N-hydroxy-2-methylsulfonyl-2-methyl-butanamide], for which the minimal inhibitory concentration (MIC) with K. pneumoniae A-651 was 1 µg/mL (≈ 2.22 µM); in the experiment with P. aeruginosa ATCC27853, 2 µg/mL (≈ 4.45 µM); in the experiment on E. coli ATCC25922, 1 µg/mL (≈ 2.22 µM); in experiment [1], greater than 32 µg/mL.
`CC(C)(O)C#CC#Cc1ccc2nn(CC[C@](C)(C(=O)NO)S(C)(=O)=O)cc2c1` [Example 32, (R)—N-hydroxy-4-[5-(5-hydroxy-5-methyl-hexa-1,3-diynyl)-indazol-2-yl]-2-methylsulfonyl-2-methyl-butanamide]: the MIC in the experiment with K. pneumoniae A-651 worked out at 0.5 µg/mL (≈ 1.2 µM); with P. aeruginosa ATCC27853 it was 1 µg/mL (≈ 2.4 µM); in the experiment with E. coli ATCC25922, 0.5 µg/mL (≈ 1.2 µM); in experiment [1], 32 µg/mL (≈ 76.6 µM).
In the case of `C[C@@H](O)c1ccc(C#Cc2ccc3nn(CC[C@](C)(C(=O)NO)S(C)(=O)=O)cc3c2)cc1` [Example 33, (R)—N-hydroxy-4-(5-((4-((R)-1-hydroxyethyl)phenyl)ethynyl)-2H-indazol-2-yl)-2-methyl-2-(methylsulfonyl)butanamide], the MIC turned out to be 0.125 µg/mL (≈ 0.274 µM) in the experiment on K. pneumoniae A-651, 0.5 µg/mL (≈ 1.1 µM) in the experiment on P. aeruginosa ATCC27853, 0.063 µg/mL (≈ 0.138 µM) in the experiment on E. coli ATCC25922 and 2 µg/mL (≈ 4.39 µM) in experiment [1].

The values are drawn from patent US9802901B2, “Antibacterial 2H-indazole derivatives” (priority 2013, dated 2017).
